Laboratory results from publication PMC12263422, “Cryo-EM structure of the human THIK-1 K2P K^+ channel reveals a lower Y gate regulated by lipids and anesthetics” (Nature Structural & Molecular Biology, 2025).
Several values for one entry are separate records, joined by “and”; a condition that tells them apart may be missing. Equal entries are not always repeated. Where two headings read alike, the source gives them in different places.

Columns and labels:
Format in all cases: cell-based
THIK-1 R92A = target: T1, THIK-1 R92A (Homo sapiens, UniProt Q9HB14, R92A); experiment: Inside-out excised patch recordings, oocytes, THIK-1 R92A mutant (lipid activation); settings: for EC50: Linoleic acid EC50, THIK-1 R92A; for Fold activation with 30.0 µM linoleic acid: THIK-1 R92A
T1 construct: expressed in transfected cells; host or cells: Xenopus oocytes (mRNA injection)
T1 sequence (Q9HB14 1-408 R92A): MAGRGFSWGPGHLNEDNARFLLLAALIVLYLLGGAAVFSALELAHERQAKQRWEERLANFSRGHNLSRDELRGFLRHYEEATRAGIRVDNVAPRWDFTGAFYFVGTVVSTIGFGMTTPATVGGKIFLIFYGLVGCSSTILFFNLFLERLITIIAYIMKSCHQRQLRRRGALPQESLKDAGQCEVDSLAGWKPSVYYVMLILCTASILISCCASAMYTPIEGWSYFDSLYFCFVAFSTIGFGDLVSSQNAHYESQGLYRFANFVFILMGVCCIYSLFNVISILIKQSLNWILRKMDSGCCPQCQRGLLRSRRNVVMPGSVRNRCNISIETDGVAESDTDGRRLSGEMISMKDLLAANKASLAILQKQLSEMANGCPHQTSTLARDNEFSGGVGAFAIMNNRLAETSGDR
Description: (§1) Human K2P13.1 THIK-1 (GenBank accession number: NM_022054) and human K2P12.1 THIK-2 (NM_022055.1) were used in this study. For functional expression studies, the respective K^+ channel subtype coding sequences were subcloned into the oocyte expression vector pSGEM or the dual-purpose expression vector pFAW[41] and verified by sequencing. All mutant channels were obtained by site-directed mutagenesis and verified by sequencing. To increase surface expression and macroscopic currents, measurements of THIK-2 channels used a mutated ER retention motif, (R11A R12A R14A R15A R16A; THIK-2*)[20]. Vector DNA was linearized with NheI or MluI, and mRNA was synthesized in vitro using the SP6 or T7 AmpliCap Max High Yield Message Maker Kit (Cellscript, USA) or HiScribe T7 ARCA mRNA Kit (New England Biolabs).
(§2) Two-electrode voltage–clamp (TEVC) studies were performed in Xenopus oocytes. All animal use conformed to the Guide for the Care and Use of Laboratory Animals (NIH Publication 85–23), and all experiments using Xenopus toads were approved by the local ethics panels. Oocytes were stored at 17 °C in ND96 recording solution composed of (in mM): 96 NaCl, 2 KCl, 1.8 CaCl2, 1 MgCl2, 5 HEPES (pH 7.5 adjusted with NaOH and HCl), supplemented with Na-pyruvate (275 mg L^–1), theophylline (90 mg L^–1) and gentamicin (50 mg L^–1). Oocytes were injected with 1 ng mRNA for WT or mutant channels, and were incubated for 24–48 h at 17 °C. Two-electrode voltage clamp recordings were then performed as previously described[42],[43]. For macroscopic patch–clamp measurements, oocytes were obtained as described above incubated at 17 °C in a solution containing (mM): 54 NaCl, 30 KCl, 2.4 NaHCO3, 0.82 MgSO4 ×7 H2O, 0.41 CaCl2, 0.33 Ca(NO3)2 ×4 H2O and 7.5 TRIS (pH 7.4 adjusted with NaOH and HCl) for 1–4 days before use. Excised patch recordings in inside-out configuration conditions were performed at room temperature. Patch pipettes were made from thick-walled borosilicate glass GB 200TF-8P (Science Products), had resistances of 0.2–0.5 MΩ (tip diameter, 10–25 µm) and filled with a pipette solution (in mM): 120 KCl, 10 HEPES and 3.6 CaCl2 (pH 7.4 adjusted with KOH and HCl). Intracellular bath solutions and compounds were applied to the cytoplasmic side of excised patches for the various K^+ channels through a gravity flow multi-barrel pipette system. The intracellular solution had the following composition (in mM): 120 KCl, 10 HEPES, 2 EGTA and 1 pyrophosphate (pH adjusted with KOH and HCl). Currents were recorded with an EPC10 amplifier (HEKA Electronics) and sampled at 10 kHz or higher, with filtering set to 3 kHz (–3 dB) or higher, as appropriate for sampling rate. For measurements of GPCR activation, whole-cell currents were recorded for THIK-1 in transiently transfected HEK-293 cells. Cells were stimulated by a ramp protocol between −100 and +60 mV (holding potential, −80 mV). The pipette solution was composed of (in mM): 140 KCl, 2 MgCl2, 1 CaCl2, 2.5 EGTA and 10 HEPES (pH 7.3 adjusted with KOH and HCl). The extracellular bath solution had the following composition (in mM): 135 NaCl, 5 KCl, 2 MgCl2, 2 CaCl2, 10 glucose and 10 HEPES pH (pH 7.3 adjusted with NaOH and HCl). Oxotremorine M (Oxo-M) was added to extracellular bath solution to obtain the final concentration. Single-channel currents were recorded with an Axopatch 200B amplifier through a Digidata 1440A digitizer (Molecular Devices). Data were filtered at 2 kHz and recorded at a 200-kHz sampling rate with the program Clampex (Molecular Devices). Pipette solution and bath solution for cell-attached recordings contained (in mM): 140 KCl, 2 MgCl2, 1 CaCl2 and 10 HEPES (pH 7.4 adjusted with KOH and HCl). For inside-out recordings, the bath solution contained (in mM): 140 KCl, 2 MgCl2, 1 CaCl2 and 10 HEPES (pH 7.2 adjusted with KOH and HCl). All experiments were conducted at room temperature. […]

THIK-1 G331x = target: T2, THIK-1 G331x (Homo sapiens, UniProt Q9HB14); experiment: Inside-out excised patch recordings, oocytes, THIK-1 truncated at CASP8 cleavage site (G331x)
T2 construct: expressed in transfected cells; host or cells: Xenopus oocytes (mRNA injection)
T2 sequence (Q9HB14 1-330 limits assumed): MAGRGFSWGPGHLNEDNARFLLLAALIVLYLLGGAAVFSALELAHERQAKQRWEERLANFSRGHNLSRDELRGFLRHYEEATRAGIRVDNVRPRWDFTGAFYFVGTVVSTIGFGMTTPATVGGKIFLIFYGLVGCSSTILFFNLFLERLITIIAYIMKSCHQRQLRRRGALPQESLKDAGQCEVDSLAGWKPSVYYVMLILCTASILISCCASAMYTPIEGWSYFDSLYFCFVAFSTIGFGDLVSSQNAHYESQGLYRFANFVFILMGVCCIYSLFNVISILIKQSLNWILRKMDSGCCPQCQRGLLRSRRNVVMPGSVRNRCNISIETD
Description: as §1, §2

THIK-1 S136A = target: T3, THIK-1 S136A (Homo sapiens, UniProt Q9HB14, S136A); experiment: Inside-out excised patch recordings, oocytes, THIK-1 S136A mutant; settings: read-out: TPenA IC50
T3 construct: expressed in transfected cells; host or cells: Xenopus oocytes (mRNA injection)
Description: Supplement 41594_2025_1497_MOESM2_ESM.xlsx, sheet "ExtData_Fig_S2c" | column: Normalized currents

T3 sequence (Q9HB14 whole entry S136A): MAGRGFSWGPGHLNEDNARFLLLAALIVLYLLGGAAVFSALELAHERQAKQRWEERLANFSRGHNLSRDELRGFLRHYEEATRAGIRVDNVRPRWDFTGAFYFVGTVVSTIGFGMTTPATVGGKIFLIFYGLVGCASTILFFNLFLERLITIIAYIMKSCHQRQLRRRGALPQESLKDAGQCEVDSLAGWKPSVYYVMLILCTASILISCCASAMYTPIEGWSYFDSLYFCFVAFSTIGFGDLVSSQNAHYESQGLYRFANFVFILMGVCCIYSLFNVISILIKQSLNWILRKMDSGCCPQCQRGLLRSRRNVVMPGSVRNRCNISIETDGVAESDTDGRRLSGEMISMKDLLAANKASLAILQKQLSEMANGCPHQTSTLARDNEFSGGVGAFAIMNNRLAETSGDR

Row | Compound | EC50 (THIK-1 R92A; individual recordings) | EC50 (THIK-1 R92A; mean) [µM] | Fold activation with 30.0 µM linoleic acid (THIK-1 R92A; individual recordings) | Fold activation with 30.0 µM linoleic acid (THIK-1 R92A; mean) | Normalized currents (THIK-1 G331x; 0.1 µM TPenA) | Normalized currents (THIK-1 G331x; 1 µM TPenA) | Normalized currents (THIK-1 G331x; 10 µM TPenA) | Normalized currents (THIK-1 G331x; 100 µM TPenA) | Normalized currents (THIK-1 G331x; 1000 µM TPenA) | Normalized currents (THIK-1 G331x; 2000 µM TPenA) | IC50 (THIK-1 S136A; individual recordings) | IC50 (THIK-1 S136A; mean) [µM]
1 | CCCCC/C=C\C/C=C\CCCCCCCC(=O)O [linoleic acid] | 52.3 µM and 38.8 µM and 36.8 µM and 60.6 µM and 44.2 µM and 91.1 µM and 115 µM | 62.6 | 1.900 and 2.280 and 2.410 and 2.160 and 1.740 and 1.840 and 1.500 and 1.630 and 1.510 | 1.89 |  |  |  |  |  |  |  | 
2 | CCCCC[N+](CCCCC)(CCCCC)CCCCC [TPenA, tetrapentylammonium] |  |  |  |  | 1.00 | 1.00 | 0.89 | 0.40 | 0.09 | 0.05 | 102 µM and 173 µM and 396 µM and 375 µM and 349 µM and 120 µM and 192 µM | 244
